Consider 36 molecules from US12441726B2, “Compounds and uses thereof” (Foghorn Therapeutics Inc., priority 2020, dated 2025).

Assay [1] concerns the target BRM (Homo sapiens, UniProt P51531). The experiment in a line: ATPase catalytic activity assay (ADP-Glo), BRM. The settings on record: 30 nM BRM, 400 μM ATP; for IC50: BRM ATPase: IC50 (uM). On the technique in general: In ADP-Glo the light output rises with the ADP produced.
Description: The ATPase catalytic activity of BRM or BRG-1 was measured by an in vitro biochemical assay using ADP-Glo™ (Promega, V9102). The ADP-Glo™ kinase assay is performed in two steps once the reaction is complete. The first step is to deplete any unconsumed ATP in the reaction. The second step is to convert the reaction product ADP to ATP, which will be utilized by the luciferase to generate luminesce and be detected by a luminescence reader, such as Envision.
Then following addition of 5 μL of ADP-Glo™ Reagent provided in the kit, the reaction incubates at room temperature for 40 minutes. Then 10 μL of Kinase Detection Reagent provided in the kit is added to convert ADP to ATP, and the reaction incubates at room temperature for 60 minutes. Finally, luminescence measurement is collected with a plate-reading luminometer, such as Envision.
Assay [2] has as its target BRG-1 (Homo sapiens, UniProt P51532). The experiment in a line: ATPase catalytic activity assay (ADP-Glo), BRG-1. The note with it: for Emax: 1 h, read-out: BRG1 Max % Inhibition, ADP-Glo, 30 nM BRG-1, 400 μM ATP.

BRG-1, sequence (P51532 whole entry): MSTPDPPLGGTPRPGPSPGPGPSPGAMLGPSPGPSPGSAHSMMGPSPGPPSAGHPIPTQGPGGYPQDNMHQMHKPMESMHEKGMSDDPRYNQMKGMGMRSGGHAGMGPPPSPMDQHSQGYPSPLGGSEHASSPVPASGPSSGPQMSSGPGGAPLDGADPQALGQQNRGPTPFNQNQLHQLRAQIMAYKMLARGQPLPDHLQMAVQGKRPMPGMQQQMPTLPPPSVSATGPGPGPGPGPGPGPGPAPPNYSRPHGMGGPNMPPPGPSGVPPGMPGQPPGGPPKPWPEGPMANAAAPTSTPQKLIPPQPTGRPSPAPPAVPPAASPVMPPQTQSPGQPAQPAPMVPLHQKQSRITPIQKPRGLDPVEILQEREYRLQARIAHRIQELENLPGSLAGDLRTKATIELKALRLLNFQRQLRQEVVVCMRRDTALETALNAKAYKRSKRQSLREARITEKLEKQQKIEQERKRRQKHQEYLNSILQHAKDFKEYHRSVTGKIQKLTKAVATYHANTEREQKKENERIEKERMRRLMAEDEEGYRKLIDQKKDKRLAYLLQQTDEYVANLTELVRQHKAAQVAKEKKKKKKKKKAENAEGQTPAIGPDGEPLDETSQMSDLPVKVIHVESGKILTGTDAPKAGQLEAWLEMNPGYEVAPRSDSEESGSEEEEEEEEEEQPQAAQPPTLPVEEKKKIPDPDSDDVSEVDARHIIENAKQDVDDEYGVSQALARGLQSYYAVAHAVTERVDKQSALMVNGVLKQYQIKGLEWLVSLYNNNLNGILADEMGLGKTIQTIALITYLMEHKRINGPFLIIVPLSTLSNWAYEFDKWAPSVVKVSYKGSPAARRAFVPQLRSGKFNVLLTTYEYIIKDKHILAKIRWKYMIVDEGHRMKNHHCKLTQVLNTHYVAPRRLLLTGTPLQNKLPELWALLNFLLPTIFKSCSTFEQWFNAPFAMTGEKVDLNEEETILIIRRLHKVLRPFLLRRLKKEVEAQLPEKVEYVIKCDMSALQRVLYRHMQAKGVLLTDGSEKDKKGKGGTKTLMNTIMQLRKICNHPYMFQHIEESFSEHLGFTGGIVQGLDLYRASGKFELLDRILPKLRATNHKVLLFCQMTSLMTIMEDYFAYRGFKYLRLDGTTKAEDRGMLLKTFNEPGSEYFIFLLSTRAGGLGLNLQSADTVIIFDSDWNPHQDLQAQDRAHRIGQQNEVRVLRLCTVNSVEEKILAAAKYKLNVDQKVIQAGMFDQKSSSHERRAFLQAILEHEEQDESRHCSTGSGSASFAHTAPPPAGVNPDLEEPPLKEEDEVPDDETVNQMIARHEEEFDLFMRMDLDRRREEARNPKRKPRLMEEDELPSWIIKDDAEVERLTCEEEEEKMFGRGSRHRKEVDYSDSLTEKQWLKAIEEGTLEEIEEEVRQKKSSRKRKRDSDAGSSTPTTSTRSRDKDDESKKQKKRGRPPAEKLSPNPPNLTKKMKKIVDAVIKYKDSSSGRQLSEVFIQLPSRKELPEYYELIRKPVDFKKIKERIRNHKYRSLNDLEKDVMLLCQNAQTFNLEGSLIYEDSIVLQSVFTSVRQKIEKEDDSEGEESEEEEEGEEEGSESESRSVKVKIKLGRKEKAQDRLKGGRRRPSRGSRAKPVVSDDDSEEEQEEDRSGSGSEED
BRM, sequence (P51531 whole entry): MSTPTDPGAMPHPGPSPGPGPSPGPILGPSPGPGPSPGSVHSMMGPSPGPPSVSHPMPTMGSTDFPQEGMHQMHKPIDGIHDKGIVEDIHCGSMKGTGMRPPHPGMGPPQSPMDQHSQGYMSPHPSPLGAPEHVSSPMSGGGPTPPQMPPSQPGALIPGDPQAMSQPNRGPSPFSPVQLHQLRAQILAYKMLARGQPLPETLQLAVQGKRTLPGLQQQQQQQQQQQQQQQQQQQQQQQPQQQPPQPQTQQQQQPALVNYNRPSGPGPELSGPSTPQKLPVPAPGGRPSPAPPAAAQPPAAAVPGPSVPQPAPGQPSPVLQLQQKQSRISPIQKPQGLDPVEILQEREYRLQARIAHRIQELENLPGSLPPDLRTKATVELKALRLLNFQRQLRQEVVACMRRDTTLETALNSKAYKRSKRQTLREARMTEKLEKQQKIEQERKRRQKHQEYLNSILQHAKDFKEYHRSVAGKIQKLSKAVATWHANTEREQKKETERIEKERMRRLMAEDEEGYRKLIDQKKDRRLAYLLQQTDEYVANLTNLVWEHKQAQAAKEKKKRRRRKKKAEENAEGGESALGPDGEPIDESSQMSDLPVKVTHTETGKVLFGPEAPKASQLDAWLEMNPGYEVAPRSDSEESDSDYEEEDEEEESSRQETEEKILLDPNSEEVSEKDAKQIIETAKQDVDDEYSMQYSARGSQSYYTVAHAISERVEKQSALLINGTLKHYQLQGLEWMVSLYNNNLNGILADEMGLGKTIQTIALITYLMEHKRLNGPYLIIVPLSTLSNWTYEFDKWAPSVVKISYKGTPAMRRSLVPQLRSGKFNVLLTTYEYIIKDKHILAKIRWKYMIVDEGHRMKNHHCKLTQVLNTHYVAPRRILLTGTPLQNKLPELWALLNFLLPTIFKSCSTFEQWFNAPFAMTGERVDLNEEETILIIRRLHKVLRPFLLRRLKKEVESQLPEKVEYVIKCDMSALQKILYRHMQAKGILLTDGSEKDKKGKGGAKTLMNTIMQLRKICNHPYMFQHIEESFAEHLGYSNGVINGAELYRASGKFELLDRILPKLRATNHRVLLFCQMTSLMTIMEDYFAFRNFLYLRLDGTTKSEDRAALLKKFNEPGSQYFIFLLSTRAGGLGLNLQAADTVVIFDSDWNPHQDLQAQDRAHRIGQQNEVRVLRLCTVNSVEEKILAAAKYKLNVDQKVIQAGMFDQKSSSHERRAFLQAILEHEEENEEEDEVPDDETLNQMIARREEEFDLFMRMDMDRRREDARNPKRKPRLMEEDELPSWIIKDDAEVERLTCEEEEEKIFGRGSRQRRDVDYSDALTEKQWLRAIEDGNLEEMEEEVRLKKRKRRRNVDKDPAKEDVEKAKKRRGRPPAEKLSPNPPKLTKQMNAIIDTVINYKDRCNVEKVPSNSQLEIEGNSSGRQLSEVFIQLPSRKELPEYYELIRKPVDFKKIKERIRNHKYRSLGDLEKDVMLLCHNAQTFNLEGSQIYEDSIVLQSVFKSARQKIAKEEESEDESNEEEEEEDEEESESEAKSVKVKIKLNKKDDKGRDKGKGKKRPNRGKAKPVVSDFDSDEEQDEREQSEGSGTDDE

Turning to `C[C@@H](NC(=O)c1ccc2c(c1)[C@](C)(C#N)COC2)c1cc2nc(-c3ccccc3)ccc2cn1` [Compound 88], in assay [1], the “BRM Max % Inhibition” value stood at 96% and the IC50 (as a rule, the point on the concentration scale where inhibition reaches its midpoint) is 0.1 to 0.5 µM. Besides, in assay [2], the IC50 was above 1000 nM and the Emax was determined as 73%.

In the case of `C[C@@]1(O)COCc2ccc(C(=O)NCc3cc4nc(-c5ccccc5)ccc4cn3)cc21` [Compound 89], in assay [1], the “BRM Max % Inhibition” value was 76% and the IC50 was above 1 µM. In assay [2], the 50% inhibitory concentration (IC50) was above 1000 nM and the Emax was 15%.

As for `C[C@@]1(CO)CCc2ccc(C(=O)NCc3cc4nc(-c5ccccc5)ccc4cn3)cc21` [Compound 90], in assay [1], the “BRM Max % Inhibition” value came out at 82% and the 50% inhibitory concentration (IC50) was above 1 µM. Further, in assay [2], the concentration for half-maximal inhibition (IC50) was above 1000 nM and the Emax came out at 24%.

For `COc1cccc(-c2ccc3cnc(CNC(=O)c4ccc5c(c4)[C@](C)(C#N)COC5)cc3n2)c1` [Compound 91], in assay [1], the “BRM Max % Inhibition” value is on record as 97% and the half-maximal inhibitory concentration (IC50) is below 0.1 µM. In assay [2], the IC50 lay within 500 to 1000 nM and the Emax was determined as 85%.

Take `C[C@@]1(C#N)COCc2ccc(C(=O)NCc3cc4c(cn3)CCN(c3ccccc3)C4)cc21` [Compound 92]: in assay [1], the “BRM Max % Inhibition” value is 95% and the IC50 was in the range of 0.1 to 0.5 µM. For the same molecule, in assay [2], the IC50 is above 1000 nM and the Emax is 64%.

Regarding `COC(=O)c1cccc(-c2ccc3cnc(CNC(=O)c4ccc5c(c4)[C@](C)(C#N)COC5)cc3n2)c1` [Compound 93], in assay [1], the “BRM Max % Inhibition” value turned out to be 99% and the IC50 is below 0.1 µM. Besides, in assay [2], the IC50 was in the range of 100 to 500 nM and the Emax turned out to be 93%.

With `C[C@@]1(C#N)COCc2ccc(C(=O)NCc3cc4nc(C5CC5)ccc4cn3)cc21` [Compound 94], in assay [1], the “BRM Max % Inhibition” value turned out to be 83% and the half-inhibitory concentration (IC50) was above 1 µM. For the same molecule, in assay [2], the IC50 was above 1000 nM and the Emax turned out to be 45%.

Take `C[C@@]1(C#N)COCc2ccc(C(=O)NCc3cc4nc(-c5cc(F)cc(N6CCC6)c5)ccc4cn3)cc21` [Compound 95]: in assay [1], the “BRM Max % Inhibition” value was 99% and the IC50 was below 0.1 µM. For the same molecule, in assay [2], the half-inhibitory concentration (IC50) was 100 to 500 nM and the Emax stood at 93%.

Regarding `CN1C[C@@](C)(C#N)c2cc(C(=O)NCc3cc4nc(-c5ccccc5)ccc4cn3)ccc21` [Compound 96], in assay [1], the “BRM Max % Inhibition” value amounted to 84% and the half-maximal inhibitory concentration (IC50) was above 1 µM. Also, in assay [2], the half-inhibitory concentration (IC50) was above 1000 nM and the Emax is 20%.

Consider `C[C@@]1(C#N)COCc2ccc(C(=O)NCc3cc4nc(-c5ccccc5)ccc4cn3)cc21` [Compound 97], for which, in assay [1], the “BRM Max % Inhibition” value came out at 93%. Besides, the values for the IC50 in assay [1] and in assay [2] were 0.1 to 0.5 µM and above 1000 nM, respectively. Also, the “BRG1 Max % Inhibition” value in assay [2] (ADP-Glo, 30 nM BRG-1, 400 μM ATP) came out at 47%.

Consider `C[C@@]1(C#N)COCc2ccc(C(=O)NCc3cc4nc(-c5cccc(C(F)F)c5)ccc4cn3)cc21` [Compound 98], for which, in assay [1], the “BRM Max % Inhibition” value came to 97% and the IC50 was below 0.1 µM. Further, in assay [2], the IC50 was above 1000 nM and the Emax came out at 81%.

`C[C@@]1(C#N)COc2ccc(C(=O)NCc3cc4nc(-c5ccccc5)ccc4cn3)cc21` [Compound 99]: in assay [1], the “BRM Max % Inhibition” value is on record as 63% and the IC50 was above 1 µM. Further, in assay [2], the half-maximal inhibitory concentration (IC50) was above 1000 nM and the Emax stood at 22%.

With `O=C(NCc1cc2nc(-c3ccccc3)ccc2cn1)c1cccc(C2(C(F)F)COC2)c1` [Compound 100], in assay [1], the “BRM Max % Inhibition” value is 83% and the 50% inhibitory concentration (IC50) lay within 0.5 to 1 µM. In assay [2], the half-inhibitory concentration (IC50) was above 1000 nM and the Emax came out at 25%.

For the molecule `COc1cc(F)cc(-c2ccc3cnc(CNC(=O)c4ccc5c(c4)[C@](C)(C#N)COC5)cc3n2)c1` [Compound 101], in assay [1], the “BRM Max % Inhibition” value worked out at 98% and the half-inhibitory concentration (IC50) was below 0.1 µM. In addition, in assay [2], the IC50 lay in the range of 500 to 1000 nM and the Emax stood at 78%.

Turning to `C[C@@]1(C#N)COCc2ccc(C(=O)NCc3cc4nc(-c5ccccn5)ccc4cn3)cc21` [Compound 102], in assay [1], the “BRM Max % Inhibition” value is reported as 93% and the 50% inhibitory concentration (IC50) lay within 0.1 to 0.5 µM. In addition, in assay [2], the half-maximal inhibitory concentration (IC50) is above 1000 nM and the Emax came to 56%.

`C[C@@]1(C#N)COCc2ccc(C(=O)NCc3cc4nc(N5CCCCC5)ccc4cn3)cc21` [Compound 103]: in assay [1], the “BRM Max % Inhibition” value turned out to be 94% and the half-maximal inhibitory concentration (IC50) was in the range of 0.1 to 0.5 µM. In assay [2], the IC50 is above 1000 nM and the Emax was determined as 71%.

As for `Cn1cc(-c2ccc3cnc(CNC(=O)c4ccc5c(c4)[C@](C)(C#N)COC5)cc3n2)cn1` [Compound 104], in assay [1], the “BRM Max % Inhibition” value came to 84% and the half-inhibitory concentration (IC50) is 0.5 to 1 µM. In assay [2], the IC50 was above 1000 nM and the Emax amounted to 33%.

With `Cn1ncc2cc(-c3ccc4cnc(CNC(=O)c5ccc6c(c5)[C@](C)(C#N)COC6)cc4n3)ccc21` [Compound 105], in assay [1], the “BRM Max % Inhibition” value is recorded as 98% and the IC50 is below 0.1 µM. Also, in assay [2], the IC50 lay in the range of 500 to 1000 nM and the Emax stood at 87%.

On to `C[C@@]1(C#N)COCc2ccc(C(=O)NCc3cnc4ccc(-c5ccccc5)nc4c3)cc21` [Compound 106], for which, in assay [1], the “BRM Max % Inhibition” value turned out to be 80% and the IC50 is above 1 µM. Besides, in assay [2], the 50% inhibitory concentration (IC50) was above 1000 nM and the Emax came out at 32%.

In the case of `C[C@@]1(C#N)COCc2ccc(C(=O)NCc3cc4nc(C5CCOCC5)ccc4cn3)cc21` [Compound 107], in assay [1], the “BRM Max % Inhibition” value is listed as 71% and the half-inhibitory concentration (IC50) was above 1 µM. Moreover, in assay [2], the half-maximal inhibitory concentration (IC50) was above 1000 nM and the Emax was 16%.

Turning to `COc1ccc(-c2ccc3cnc(CNC(=O)c4ccc5c(c4)[C@](C)(C#N)COC5)cc3n2)cc1` [Compound 108], in assay [1], the “BRM Max % Inhibition” value worked out at 99% and the half-inhibitory concentration (IC50) is below 0.1 µM. In assay [2], the 50% inhibitory concentration (IC50) was 500 to 1000 nM and the Emax is 91%.

With `C[C@@]1(CO)COCc2ccc(C(=O)NCc3cc4nc(-c5ccccc5)ccc4cn3)cc21` [Compound 109], in assay [1], the “BRM Max % Inhibition” value is 75% and the IC50 is above 1 µM. In addition, in assay [2], the IC50 was above 1000 nM and the Emax stood at 11%.

For the molecule `Cn1ncc2ccc(-c3ccc4cnc(CNC(=O)c5ccc6c(c5)[C@](C)(C#N)COC6)cc4n3)cc21` [Compound 110], in assay [1], the “BRM Max % Inhibition” value worked out at 99% and the IC50 is below 0.1 µM. Also, in assay [2], the IC50 lay within 500 to 1000 nM and the Emax was found to be 86%.

Take `COc1ccccc1-c1ccc2cnc(CNC(=O)c3ccc4c(c3)[C@](C)(C#N)COC4)cc2n1` [Compound 111]: in assay [1], the “BRM Max % Inhibition” value came out at 101% and the 50% inhibitory concentration (IC50) is below 0.1 µM. In assay [2], the IC50 is 100 to 500 nM and the Emax worked out at 93%.

With `C[C@@]1(C#N)COCc2ccc(C(=O)NCc3cc4nc(-c5cccc(C#N)c5)ccc4cn3)cc21` [Compound 112], in assay [1], the “BRM Max % Inhibition” value turned out to be 94% and the IC50 fell in the range of 0.1 to 0.5 µM. For the same molecule, in assay [2], the IC50 was above 1000 nM and the Emax amounted to 55%.

Consider `Cn1ccc(-c2ccc3cnc(CNC(=O)c4ccc5c(c4)[C@](C)(C#N)COC5)cc3n2)n1` [Compound 113], for which, in assay [1], the “BRM Max % Inhibition” value came out at 79% and the IC50 was above 1 µM. In assay [2], the 50% inhibitory concentration (IC50) was above 1000 nM and the Emax turned out to be 32%.

`C[C@@]1(C#N)COCc2ccc(C(=O)NCc3cc4nc(-c5cccnc5)ccc4cn3)cc21` [Compound 114]: in assay [1], the “BRM Max % Inhibition” value is 86% and the IC50 fell in the range of 0.5 to 1 µM. In assay [2], the concentration for half-maximal inhibition (IC50) is above 1000 nM and the Emax is 42%.

For `C[C@@]1(CO)COCc2ccc(C(=O)NCc3cc4nc(-c5ccccc5)sc4cn3)cc21` [Compound 115], in assay [1], the “BRM Max % Inhibition” value was 84% and the IC50 is above 1 µM. In addition, in assay [2], the 50% inhibitory concentration (IC50) is above 1000 nM and the Emax turned out to be 19%.

`C[C@@]1(C#N)CCNc2ccc(C(=O)NCc3cc4nc(-c5ccccc5)ccc4cn3)cc21` [Compound 116]: in assay [1], the “BRM Max % Inhibition” value is recorded as 76% and the IC50 is above 1 µM. For the same molecule, in assay [2], the IC50 is above 1000 nM and the Emax came out at 22%.

Regarding `C[C@@]1(C#N)COc2ccc(C(=O)NCc3cc4nc(-c5ccccc5)sc4cn3)cc21` [Compound 117], in assay [1], the “BRM Max % Inhibition” value was 74% and the half-maximal inhibitory concentration (IC50) is above 1 µM. Also, in assay [2], the concentration for half-maximal inhibition (IC50) was above 1000 nM and the Emax came to 27%.

As for `C[C@@]1(C#N)CCOc2ccc(C(=O)NCc3cc4nc(-c5ccccc5)sc4cn3)cc21` [Compound 118], in assay [1], the “BRM Max % Inhibition” value stood at 89% and the IC50 is above 1 µM. In assay [2], the half-maximal inhibitory concentration (IC50) is above 1000 nM and the Emax stood at 40%.

As for `C[C@@]1(O)COCc2ccc(C(=O)NCc3cc4nc(-c5ccccc5)sc4cn3)cc21` [Compound 119], in assay [1], the “BRM Max % Inhibition” value was determined as 81% and the half-maximal inhibitory concentration (IC50) is above 1 µM. Also, in assay [2], the IC50 is above 1000 nM and the Emax was 18%.

For `C[C@@]1(C#N)CCNc2ccc(C(=O)NCc3cc4nc(-c5ccccc5)sc4cn3)cc21` [Compound 120], in assay [1], the “BRM Max % Inhibition” value is given as 8% and the IC50 was above 1 µM. Further, in assay [2], the IC50 was above 1000 nM and the Emax came out at 0%.

With `COC(=O)N1CCCC(c2ccc3cnc(CNC(=O)c4ccc5c(c4)[C@](C)(C#N)COC5)cc3n2)C1` (stereo partly drawn) [Compound 121], in assay [1], the “BRM Max % Inhibition” value is 81% and the half-inhibitory concentration (IC50) was above 1 µM. In assay [2], the concentration for half-maximal inhibition (IC50) is above 1000 nM and the Emax was found to be 44%.

As for `C[C@@]1(C#N)COCc2ncc(C(=O)NCc3cc4nc(-c5ccccc5)ccc4cn3)cc21` [Compound 122], in assay [1], the “BRM Max % Inhibition” value came to 94% and the 50% inhibitory concentration (IC50) lay within 0.1 to 0.5 µM. In assay [2], the 50% inhibitory concentration (IC50) is above 1000 nM and the Emax worked out at 62%.

In the case of `C[C@@]1(C#N)COCc2ccc(C(=O)NCc3cc4cc(-c5ccccc5)ccc4cn3)cc21` [Compound 123], in assay [1], the “BRM Max % Inhibition” value was determined as 96% and the IC50 was 0.1 to 0.5 µM. Further, in assay [2], the IC50 was above 1000 nM and the Emax turned out to be 74%.
